Data from ChEMBL document CHEMBL1201862, “PubChem BioAssay data set” (2004).
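The compound was tested at five concentrations on cells cultured in 96-well plates, with a 48-hour exposure period. Abbreviation: GI50, concentration required for 50% inhibition of growth.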 Active and inactive are the calls of the source. Rule as the data show it: active = GI50 up to about 1.1 µM and inactive = higher.

Legend:
Assay in all cases: NCI tumour cell line growth inhibition, 48 h
HOP-92 = test system: HOP-92
DU-145 = test system: DU-145
SW-620 = test system: SW-620
NCI-H23 = test system: NCI-H23
HL-60 = test system: HL-60
786-0 = test system: 786-0
CCRF-CEM = test system: CCRF-CEM
A498 = test system: A498
KM12 = test system: KM12
HOP-62 = test system: HOP-62
OVCAR-4 = test system: OVCAR-4
MDA-MB-435 = test system: MDA-MB-435
LOX IMVI = test system: LOX IMVI
MCF7 = test system: MCF7
PC-3 = test system: PC-3
SN12C = test system: SN12C
U-251 = test system: U-251
UO-31 = test system: UO-31
SK-MEL-28 = test system: SK-MEL-28
SF-539 = test system: SF-539
BT-549 = test system: BT-549
COLO 205 = test system: COLO 205
OVCAR-8 = test system: OVCAR-8
CAKI-1 = test system: CAKI-1
SR = test system: SR
UACC-257 = test system: UACC-257
T47D = test system: T47D
MOLT-4 = test system: MOLT-4
SK-MEL-2 = test system: SK-MEL-2
MDA-N = test system: MDA-N
RXF 393 = test system: RXF 393
SNB-75 = test system: SNB-75
M14 = test system: M14
K562 = test system: K562
NCI-H522 = test system: NCI-H522
MDA-MB-231 = test system: MDA-MB-231
ACHN = test system: ACHN
SNB-19 = test system: SNB-19
A549 = test system: A549
NCI-H460 = test system: NCI-H460
SK-MEL-5 = test system: SK-MEL-5
HCT-116 = test system: HCT-116
EKVX = test system: EKVX
OVCAR-5 = test system: OVCAR-5
NCI-H226 = test system: NCI-H226
SK-OV-3 = test system: SK-OV-3
HCT-15 = test system: HCT-15
UACC-62 = test system: UACC-62
SF-295 = test system: SF-295
SF-268 = test system: SF-268
NCI/ADR-RES = test system: NCI/ADR-RES
OVCAR-3 = test system: OVCAR-3
HCC 2998 = test system: HCC 2998
TK-10 = test system: TK-10
HT-29 = test system: HT-29
Malme-3M = test system: Malme-3M
IGROV-1 = test system: IGROV-1
RPMI-8226 = test system: RPMI-8226

With `Cc1c(O)c(OC2OC(CO)C(O)C(O)C2O)cc2c1C=C[C@@H]1[C@@]2(C)C(=O)C[C@]2(C)[C@@H]([C@@](C)(O)C(O)/C=C/C(C)(C)O)[C@H](O)C[C@@]12C` (some centres undefined) the GI50 (HOP-92) was > 100 µM (inactive), the GI50 (DU-145) was > 100 µM (inactive) and the GI50 (SW-620) was > 100 µM (inactive). For the same compound, the GI50 (NCI-H23) was > 100 µM (inactive), the GI50 (HL-60) was > 100 µM (inactive) and the GI50 (786-0) was > 100 µM (inactive). For the same compound, the GI50 (CCRF-CEM) was > 100 µM (inactive), the GI50 (A498) was > 100 µM (inactive) and the GI50 (KM12) was > 100 µM (inactive). For the same compound, the GI50 (HOP-62) was > 100 µM (inactive), the GI50 (OVCAR-4) was > 100 µM (inactive) and the GI50 (MDA-MB-435) was > 100 µM (inactive). For the same compound, the GI50 (LOX IMVI) was > 100 µM (inactive), the GI50 (MCF7) was > 100 µM (inactive) and the GI50 (PC-3) was > 100 µM (inactive). For the same compound, the GI50 (SN12C) was > 100 µM (inactive), the GI50 (U-251) was > 100 µM (inactive) and the GI50 (UO-31) was > 100 µM (inactive). For the same compound, the GI50 (SK-MEL-28) was > 100 µM (inactive), the GI50 (SF-539) was > 100 µM (inactive) and the GI50 (BT-549) was > 100 µM (inactive). The GI50 (COLO 205) was > 100 µM (inactive), the GI50 (OVCAR-8) was > 100 µM (inactive) and the GI50 (CAKI-1) was > 100 µM (inactive). For the same compound, the GI50 (SR) was > 100 µM (inactive), the GI50 (UACC-257) was > 100 µM (inactive) and the GI50 (T47D) was > 100 µM (inactive). For the same compound, the GI50 (MOLT-4) was > 100 µM (inactive), the GI50 (SK-MEL-2) was > 100 µM (inactive) and the GI50 (MDA-N) was > 100 µM (inactive). The GI50 (RXF 393) was > 100 µM (inactive), the GI50 (SNB-75) was > 100 µM (inactive) and the GI50 (M14) was > 100 µM (inactive). For the same compound, the GI50 (K562) was > 100 µM (inactive), the GI50 (NCI-H522) was > 100 µM (inactive) and the GI50 (MDA-MB-231) was > 100 µM (inactive). For the same compound, the GI50 (ACHN) was > 100 µM (inactive), the GI50 (SNB-19) was > 100 µM (inactive) and the GI50 (A549) was > 100 µM (inactive). The GI50 (NCI-H460) was > 100 µM (inactive), the GI50 (SK-MEL-5) was > 100 µM (inactive) and the GI50 (HCT-116) was > 100 µM (inactive). For the same compound, the GI50 (EKVX) was > 100 µM (inactive), the GI50 (OVCAR-5) was > 100 µM (inactive) and the GI50 (NCI-H226) was > 100 µM (inactive). For the same compound, the GI50 (SK-OV-3) was > 100 µM (inactive), the GI50 (HCT-15) was greater than 100 µM and the GI50 (UACC-62) was > 100 µM (inactive). The GI50 (SF-295) was > 100 µM (inactive), the GI50 (SF-268) was > 100 µM (inactive) and the GI50 (NCI/ADR-RES) was > 100 µM (inactive). The GI50 (OVCAR-3) was > 100 µM (inactive), the GI50 (HCC 2998) was > 100 µM (inactive) and the GI50 (TK-10) was > 100 µM (inactive). For the same compound, the GI50 (HT-29) was > 100 µM (inactive), the GI50 (Malme-3M) was > 100 µM (inactive) and the GI50 (IGROV-1) was > 100 µM (inactive).

`C/C(=C/c1ccccc1)CN(C(=O)/C=C\Sc1ccccc1)C(C)(C)C` was tested, and the GI50 (HOP-92) was 4.85 µM (inactive), the GI50 (DU-145) was > 100 µM (inactive) and the GI50 (SW-620) was > 100 µM (inactive). For the same compound, the GI50 (NCI-H23) was > 48 µM (inactive), the GI50 (HL-60) was 28 µM (inactive) and the GI50 (786-0) was > 100 µM (inactive). For the same compound, the GI50 (CCRF-CEM) was 63.1 µM (inactive), the GI50 (A498) was > 100 µM (inactive) and the GI50 (KM12) was > 100 µM (inactive). The GI50 (HOP-62) was > 100 µM (inactive), the GI50 (OVCAR-4) was > 87.5 µM (inactive) and the GI50 (MDA-MB-435) was > 100 µM (inactive). For the same compound, the GI50 (LOX IMVI) was > 66.4 µM (inactive), the GI50 (MCF7) was 65.2 µM (inactive) and the GI50 (PC-3) was > 68.7 µM (inactive). The GI50 (SN12C) was > 100 µM (inactive), the GI50 (U-251) was > 84.9 µM (inactive) and the GI50 (UO-31) was > 52 µM (inactive). For the same compound, the GI50 (SK-MEL-28) was > 100 µM (inactive), the GI50 (SF-539) was > 91.2 µM (inactive) and the GI50 (BT-549) was > 43.7 µM (inactive). For the same compound, the GI50 (COLO 205) was > 100 µM (inactive), the GI50 (OVCAR-8) was > 83.8 µM (inactive) and the GI50 (CAKI-1) was > 100 µM (inactive). The GI50 (SR) was 19.6 µM (inactive), the GI50 (UACC-257) was 48.3 µM (inactive) and the GI50 (T47D) was > 31.2 µM (inactive). For the same compound, the GI50 (MOLT-4) was 3.87 µM (inactive), the GI50 (SK-MEL-2) was > 75.9 µM (inactive) and the GI50 (MDA-N) was > 100 µM (inactive). The GI50 (RXF 393) was > 100 µM (inactive), the GI50 (SNB-75) was > 100 µM (inactive) and the GI50 (M14) was > 100 µM (inactive). For the same compound, the GI50 (K562) was 27.2 µM (inactive), the GI50 (NCI-H522) was 10.1 µM (inactive) and the GI50 (MDA-MB-231) was > 100 µM (inactive). For the same compound, the GI50 (RPMI-8226) was 21.2 µM (inactive), the GI50 (ACHN) was > 100 µM (inactive) and the GI50 (SNB-19) was > 100 µM (inactive). The GI50 (A549) was 60.1 µM (inactive), the GI50 (NCI-H460) was > 100 µM (inactive) and the GI50 (SK-MEL-5) was 60.8 µM (inactive). For the same compound, the GI50 (HCT-116) was 24.8 µM (inactive), the GI50 (EKVX) was > 70 µM (inactive) and the GI50 (OVCAR-5) was > 100 µM (inactive). The GI50 (NCI-H226) was > 94.4 µM (inactive), the GI50 (SK-OV-3) was > 100 µM (inactive) and the GI50 (HCT-15) was 37.2 µM. The GI50 (UACC-62) was > 100 µM (inactive), the GI50 (SF-295) was > 100 µM (inactive) and the GI50 (NCI/ADR-RES) was > 34.6 µM (inactive). For the same compound, the GI50 (OVCAR-3) was > 75.3 µM (inactive), the GI50 (HCC 2998) was 45.4 µM (inactive) and the GI50 (TK-10) was > 100 µM (inactive). The GI50 (HT-29) was 36.4 µM (inactive), the GI50 (Malme-3M) was > 100 µM (inactive) and the GI50 (IGROV-1) was > 100 µM (inactive).
